Consider 22 compounds from US10188108B2, “Fused bicyclic heterocycle derivatives as pesticides” (BAYER CROPSCIENCE AKTIENGESELLSCHAFT, priority 2015, dated 2019).

Read-outs that look alike come from different tables or passages of the source.

In data set [1] the test system is Myzus persicae. Put plainly: Myzus persicae - spray test (Chinese cabbage leaf discs). The format is in vivo. Conditions: 500 g/ha, after 5-6 days. The method, then: • Solvent: 78 parts by weight of acetone • 1.5 parts by weight of dimethylformamide • Emulsifier: alkylaryl polyglycol ether
(§1) To produce a suitable preparation of active compound, 1 part by weight of active compound is dissolved using the stated parts by weight of solvent and made up with water containing an emulsifier concentration of 1000 ppm until the desired concentration is attained. To produce further test concentrations, the preparation is diluted with emulsifier-containing water.
Discs of Chinese cabbage leaves (Brassica pekinensis) infested by all stages of the green peach aphid (Myzus persicae) are sprayed with an active compound preparation of the desired concentration.
After 5-6 days, the efficacy in % is determined. 100% means that all the aphids have been killed; 0% means that no aphids have been killed.

A short description of data set [2]: log P by HPLC on a reversed-phase column (C 18), EEC Directive 79/831 Annex V.A8. Conditions: for LOGP_NEUTRAL: pH 7.8, 0.001 molar aqueous ammonium hydrogencarbonate/acetonitrile; for chromatographic logP: reversed-phase HPLC column (C 18). The format is physicochemical. The method, then:
The log P values are measured according to EEC Directive 79/831 Annex V.A8 by HPLC (high-performance liquid chromatography) on a reversed-phase column (C 18). Temperature: 55° C.
The LC-MS determination in the acidic range is effected at pH 2.7 using 0.1% aqueous formic acid and acetonitrile (contains 0.1% formic acid) as eluents; linear gradient from 10% acetonitrile to 95% acetonitrile. Called log P (HCOOH) in the table.
LC-MS determination in the neutral range is effected at pH 7.8 with 0.001 molar aqueous ammonium hydrogencarbonate solution and acetonitrile as eluents; linear gradient from 10% acetonitrile to 95% acetonitrile. Called log P (neutral) in the table.
Calibration is carried out using unbranched alkan-2-ones (having 3 to 16 carbon atoms) with known log P values (log P values determined on the basis of the retention times by linear interpolation between two successive alkanones).

Data set [3] concerns Spodoptera frugiperda. The experiment in a line: Spodoptera frugiperda - spray test. Type of data set: in vivo. The settings on record: 500 g/ha, after 7 days, caterpillars on maize leaf discs. The method, then: (§2) • Solvent: 78.0 parts by weight of acetone • 1.5 parts by weight of dimethylformamide • Emulsifier: alkylaryl polyglycol ether
as §1
Leaf discs of maize (Zea mays) are sprayed with an active compound preparation of the desired concentration and, after drying, populated with caterpillars of the armyworm (Spodoptera frugiperda).
After 7 days, the efficacy in % is determined. 100% means that all the caterpillars have been killed; 0% means that no caterpillars have been killed.

For data set [4], the system named is Phaedon cochleariae. Put plainly: Phaedon cochleariae - spray test. The format is in vivo. Conditions: 500 g/ha, after 7 days, larvae on Chinese cabbage leaf discs. The method, then:
as §2, §1
After 7 days, the efficacy in % is determined. 100% means that all the beetle larvae have been killed; 0% means that no beetle larvae have been killed.

The subject of data set [5] is Ctenocephalides felis. The experiment in a line: Ctenocephalides felis - in vitro contact tests with adult cat fleas. The format is in vivo. The settings on record: 5 μg/cm^2 (=500 g/ha), after 48 h, adult cat fleas dead or moribund. How it is done: For the coating of the test tubes, 9 mg of active compound are first dissolved in 1 ml of acetone p.a. and then diluted to the desired concentration with acetone p.a. 250 μl of the solution are distributed homogeneously on the inner walls and the base of a 25 ml test tube by turning and rocking on an orbital shaker (rocking rotation at 30 rpm for 2 h). With 900 ppm active compound solution and internal surface 44.7 cm^2, given homogeneous distribution, an area-based dose of 5 μg/cm^2 is achieved.
After the solvent has evaporated off, the tubes are populated with 5-10 adult cat fleas (Ctenocephalides felis), sealed with a perforated plastic lid and incubated in a horizontal position at room temperature and ambient humidity. After 48 h, efficacy is determined. To this end, the test tubes are stood upright and the fleas are knocked to the base of the tube. Fleas which remain motionless at the base or move in an uncoordinated manner are considered to be dead or moribund.
100% efficacy means that all the fleas were dead or moribund. 0% efficacy means that no fleas were harmed.

Setting [6] is: acidic range, pH 2.7, 0.1% aqueous formic acid/acetonitrile, 55° C., read-out: LOGP_HCOOH.
The mark [7] stands for this setting: neutral range, pH 7.8, value in preparation example text, read-out: log P (neutral).
Where [8] appears, read: acidic range, pH 2.7, 0.1% aqueous formic acid/acetonitrile, 55° C.

In data set [1], `CCSc1c(-c2nc3cc(C(F)(F)F)ncc3n2C)nc2ccccn12` [Example I-2, 2-(3-Ethylsulphanylimidazo[1,2-a]pyridin-2-yl)-3-methyl-6-(trifluoromethyl)imidazo[4,5-c]pyridine] came in with an efficacy of 90%. The same compound had an LOGP_NEUTRAL in data set [2] (neutral range, 55° C.) of 2.75. Further, the chromatographic logP in data set [2] (setting [6]) was determined as 2.84; in data set [2] (setting [7]), 2.75.

Consider `CC[S+]([O-])c1c(-c2nc3cc(C(F)(F)F)ncc3n2C)nc2ccc(Cl)cn12` (stereo not drawn) [Example I-7], for which the efficacy in data set [1] was 90%; in data set [3], 100%. The compound also displayed an LOGP_HCOOH in data set [2] (setting [8]) of 2.93. The LOGP_NEUTRAL in data set [2] (neutral range, 55° C.) is listed as 2.83.

`CC[S+]([O-])c1c(-c2nc3cc(C(F)(F)F)ccc3n2C)nc2ccccn12` (stereo not drawn) [Example I-11]: the efficacy in data set [4] was 100%; in data set [1], 90%; in data set [3], 100%. In data set [2] (setting [8]), this compound gave an LOGP_HCOOH of 2.92. The LOGP_NEUTRAL in data set [2] (neutral range, 55° C.) is on record as 2.85.

On to `CCS(=O)(=O)c1c(-c2nc3cc(C(F)(F)F)ncc3n2C)nc2c(Cl)cccn12` [Example I-19], for which the efficacy in data set [4] is 100%; in data set [1] it was 90%; in data set [3], 100%. Moreover, the LOGP_HCOOH in data set [2] (setting [8]) turned out to be 2.56. Moreover, the LOGP_NEUTRAL in data set [2] (neutral range, 55° C.) worked out at 2.50.

For the compound `CCS(=O)(=O)c1c(-c2nc3cc(C(F)(F)F)ncc3n2C)nc2cccc(C(F)(F)F)n12` [Example I-21], the efficacy in data set [4], in data set [1] and in data set [3] was 100% throughout. The compound also had an LOGP_HCOOH in data set [2] (setting [8]) of 2.69. Further, the LOGP_NEUTRAL in data set [2] (neutral range, 55° C.) worked out at 2.66.

In the case of `CC[S+]([O-])c1c(-c2nc3cc(C(F)(F)F)ncc3n2C)nc2cccc(C(F)(F)F)n12` (stereo not drawn) [Example I-22], the efficacy in data set [4] was found to be 100%; in data set [1], 90%. The compound also came in with an LOGP_HCOOH in data set [2] (setting [8]) of 2.30. Further, the LOGP_NEUTRAL in data set [2] (neutral range, 55° C.) was found to be 2.30.

On to `CCS(=O)(=O)c1c(-c2nc3cc(C(F)(F)F)ncc3n2C)nc2cc(Cl)ccn12` [Example I-23], for which the efficacy in data set [4], in data set [5] and in data set [3] was 100% each time. Also, in data set [2] (setting [8]), the LOGP_HCOOH is 2.66. The compound also gave an LOGP_NEUTRAL in data set [2] (neutral range, 55° C.) of 2.64.

Consider `CCSc1c(-c2nc3cc(C(F)(F)F)ccc3n2C)nc2cc(C(F)(F)F)ccn12` [Example I-30], for which the efficacy is listed as 83% in data set [4] and 100% in data set [3]. The LOGP_HCOOH in data set [2] (setting [8]) turned out to be 4.50.

As for `CCS(=O)(=O)c1c(-c2nc3cc(C(F)(F)F)ccc3n2C)nc2cc(C)ccn12` [Example I-33], the LOGP_HCOOH in data set [2] (setting [8]) is 3.01. Also, the efficacy in data set [5] was 100%; in data set [3], 83%.

`CCS(=O)(=O)c1c(-c2nc3cc(C(F)(F)F)ccc3n2C)nc2cc(C(F)(F)F)ccn12` [Example I-34]: the efficacy in data set [4], in data set [5] and in data set [3] was 100% throughout. This compound came in with an LOGP_HCOOH in data set [2] (setting [8]) of 3.72.

Consider `CCS(=O)(=O)c1c(-c2nc3cc(C(F)(F)F)ccc3n2C)nc2ccc(C(F)(F)F)cn12` [Example I-36], for which the efficacy in data set [4] and in data set [3] was 100% each time. This compound also showed an LOGP_HCOOH in data set [2] (setting [8]) of 3.70.

On to `CCS(=O)(=O)c1cccn2c(S(=O)(=O)CC)c(-c3nc4cc(C(F)(F)F)ncc4n3C)nc12` [Example I-39], for which the efficacy in data set [4] and in data set [3] was 100% throughout. Further, the LOGP_HCOOH in data set [2] (setting [8]) was 2.30. This compound came in with an LOGP_NEUTRAL in data set [2] (neutral range, 55° C.) of 2.29.

Regarding `CCS(=O)(=O)c1c(-c2nc3cc4c(cc3n2C)OC(F)(F)O4)nc2ccccn12` [Example I-41, 6-[3-(Ethylsulphonyl)imidazo[1,2-a]pyridin-2-yl]-2,2-difluoro-5-methyl-5H-[1,3]dioxolo[4,5-f]benzimidazole], the efficacy was 100% in data set [4], 90% in data set [1] and 83% in data set [3]. Also, the LOGP_NEUTRAL in data set [2] (neutral range, 55° C.) was determined as 2.62. Further, the values for the chromatographic logP in data set [2] (setting [6]) and in data set [2] (setting [7]) were 2.59 and 2.62, respectively.

With `CCS(=O)(=O)c1c(-c2nc3cc(C(F)(F)F)ccc3n2C)nc2ccc(Cl)cn12` [Example I-42], the efficacy in data set [4] and in data set [3] was 100% each time. Moreover, in data set [2] (setting [8]), the LOGP_HCOOH turned out to be 3.34.

For `CCS(=O)(=O)c1c(-c2nc3cc(C(F)(F)F)cnc3o2)nc2ccccn12` [Example I-44, 2-[3-(Ethylsulphonyl)imidazo[1,2-a]pyridin-2-yl]-6-(trifluoromethyl) [1,3]oxazolo[5,4-b]pyridine], the results for the efficacy in data set [4] and in data set [3] were 100% and 83%, respectively. In addition, the LOGP_HCOOH in data set [2] (setting [8]) is 2.53. For the same compound, in data set [2] (neutral range, 55° C.), the LOGP_NEUTRAL came out at 2.52. For the same compound, the chromatographic logP in data set [2] (setting [7]) was determined as 2.52.

With `CCS(=O)(=O)c1c(-c2nc3cc(C(F)(F)F)ccc3n2C)nc2cccc(C)n12` [Example I-46], the efficacy in data set [4] came to 83%; in data set [1], 90%. This compound returned an LOGP_HCOOH in data set [2] (setting [8]) of 2.73.

As to `CCS(=O)(=O)c1c(-c2nc3cc(C(F)(F)F)cnc3o2)nc2ccc(C(F)(F)F)cn12` [Example I-47], the efficacy is 100% in data set [4] and 83% in data set [3]. In data set [2] (setting [8]), this compound returned an LOGP_HCOOH of 3.51.

Regarding `CCS(=O)(=O)c1c(-c2nc3cc(C(F)(F)F)ncc3n2C)nc2ccc(C)cn12` [Example I-48], the efficacy was 90% in data set [1] and 100% in data set [3]. Besides, the LOGP_HCOOH in data set [2] (setting [8]) worked out at 2.43. Besides, the LOGP_NEUTRAL in data set [2] (neutral range, 55° C.) is given as 2.36.

On to `CCS(=O)(=O)c1c(-c2nc3cc(C(F)(F)F)cnc3o2)nc2cc(C(F)(F)F)ccn12` [Example I-49], for which the efficacy in data set [4] and in data set [3] was 100% throughout. The compound further returned an LOGP_HCOOH in data set [2] (setting [8]) of 3.53.

For the compound `CCSc1c(-c2nc3cc(C(F)(F)F)cnc3o2)nc2cc(C(F)(F)F)ccn12` [Example I-50], the efficacy in data set [4] and in data set [3] was 100% each time. This compound registered an LOGP_HCOOH in data set [2] (setting [8]) of 4.14.

As for `CCS(=O)(=O)c1c(-c2nc3cc(C(F)(F)F)cnc3n2C)nc2ccc(C)cn12` [Example I-53], the efficacy in data set [1] and in data set [3] was 100% in each case. This compound registered an LOGP_HCOOH in data set [2] (setting [8]) of 2.84. Besides, in data set [2] (neutral range, 55° C.), the LOGP_NEUTRAL is given as 2.78.

For the compound `CCS(=O)(=O)c1c(-c2nc3cc(C(F)(F)F)ncc3n2C)nc2ccc(OC)cn12` [Example I-54], the efficacy in data set [1] was determined as 90%; in data set [3], 100%. Further, the LOGP_HCOOH in data set [2] (setting [8]) was found to be 2.41. Also, the LOGP_NEUTRAL in data set [2] (neutral range, 55° C.) worked out at 2.37.
